Data from ChEMBL document CHEMBL1138874, “Design and synthesis of a series of novel pyrazolopyridines as HIF-1alpha prolyl hydroxylase inhibitors” (Bioorg Med Chem Lett, 2006).

System: HEK293
Assay: cells
Conditions: Homo sapiens

First: O=C(O)c1cnn(-c2ccc(COCc3ccc(Cl)cc3)cn2)c1
Second: COc1ccc(COCc2ccc(-n3cc(C(=O)O)cn3)nc2)cc1
The EC50 of the first is 7.4-fold higher: 7.4 µM for the first, 1 µM for the second. The second is the more potent here.

Going from `O=C(O)c1cnn(-c2ccc(COCc3cccc(Cl)c3)cn2)c1` to `COc1cccc(COCc2ccc(-n3cc(C(=O)O)cn3)nc2)c1`, the EC50 rises from 3.8 µM to over 100 µM. The first is the more potent here.

First: O=C(O)c1cnn(-c2ccc(COCc3ccccc3)cn2)c1
Second: O=C(O)c1cnn(-c2ccc(COCc3cccc(C(F)(F)F)c3)cn2)c1
The EC50 of the first is 2.3-fold higher: 25 µM for the first, 11 µM for the second.

`N#Cc1ccccc1-c1ccc(COCc2ccc(-n3cc(C(=O)O)cn3)nc2)cc1` showed an EC50 of over 100 µM.
